Assay results from patent US20180264245A1, “Skin Care Applicator” (The Procter & Gamble Company, priority 2017, published 2018).
Where a SMILES comes first, the peptide text is derived from it.

How the values were obtained:
[1] = Pal KTTKS in vivo skin penetration study (tape stripping); parameters: species or system human; key to significance of mean μg PalKTTKS/μg skin of Strip 6-10: “s” indicates significant difference vs. mean of passive (p < 0.1); conditions: for μg PalKTTKS/μg skin of Strip 6-10: cream; for Enhancement for strip 6-10: w Vibration vs. w/o Vibration
Experimental: An in vivo skin penetration study was conducted to establish the effect of using a skin care product of the present invention by applying a skin care composition comprising a peptide, in this case, Pal KTTKS, with an applicator comprising a magnetic array and a vibration source. The study used 10 active study sites (composition applied to target skin surface using an applicator containing a magnetic array and vibration source of the present invention) versus 10 control study sites (composition applied to target skin surface using an applicator with just a magnetic array). In this example, the level of Pal KTTKS present in the extract from each tape strip was measured using HPLC and the results normalized to the protein level measured on the tape strip.
This method provides a suitable means of measuring the amount of skin care active present in skin, and comparing active versus passive application of the skin care active. Two identical circular areas of 7.9 cm^2 were marked on the volar forearms of volunteers. A measured dose (approximately 9 mg) of the skin care formulation (ingredients shown in Table 1) was applied to the delineated areas using a screw actuated syringe. Application was carried out in each case using purpose made applicators having a metallic aluminium skin contact surface behind which was the magnetic array. The cream was spread evenly across the entire delineated region using the applicator in a sweeping motion with a fixed speed of approximately 3.5 cm/s to mimic normal finger application. The application period was 30 seconds during which time visual inspection was used to ensure even distribution and absorption of the formulation by skin. The application area was then left uncovered for a further 30 minutes to ensure complete absorption. The application area was then wiped thoroughly to remove any surface material, followed by carrying out tape stripping.
The Tape Stripping method can be carried out using commercial pre-cut 22.1 mm tape stripping adhesive discs (D-Squame, Cuderm Corporation or equivalent) with an adhesive area of 3.8 cm^2. A 22.1 mm diameter circular region was marked at the centre of the application area. A tape stripping adhesive disc was placed over the marked area and even pressure applied using a neoprene roller, rolled ten times over the surface. The adhesive disc was removed from the skin surface in a single pulling motion using manual tweezers. To ensure even removal of the stratum corneum, subsequent discs were removed in a north, south, east and west orientation. Each adhesive disc was non-destructively analysed for relative protein content using the SquameScan™ 850 instrument (Heiland Electronics Wetzlar Germany). The adhesive disc was then immediately placed into a glass vial containing extraction solvent in preparation for subsequent analysis. Solvent extractions are conducted on each tape strip using conventional extraction methods, which are well known to those of ordinary skill in the art, and measuring the amount of niacinamide present in the extract, for example, by high performance liquid chromatography (“HPLC”) and/or mass spectrometry.
The procedure was repeated for the remaining nine strips. An additional strip was obtained from outside the area of application of the skin care formulation to serve as a blank sample.

[2] = unit not given; cited from earlier work
[3] = Inositol in vitro skin penetration study (Franz Diffusion Cell assay); type: in vitro ADME, human; conditions: 0.5% inositol product, 24 hours; magnet with vibration vs. finger application or applicator incorporating a magnet; particularly in the epidermis; FIG. 6
Experimental: Skin penetration was measured using the Franz Diffusion Cell assay. Split-thickness (dermatomed) human cadaver skin was thawed under ambient conditions, cut into appropriately sized sections, and mounted in standard Franz-type diffusion cells (0.79 cm^2 surface area) maintained at about 37° C. The receptor compartments were filled with 5 mL phosphate buffered saline (PBS-pH 7.4) that included 1% polysorbate-20 and 0.02% sodium azide, and the skin was allowed to equilibrate for two hours. The cells were qualified upon ^3H20 flux through the mounted skin (150 μL of ^3H20 applied for five minutes and removed; receptor fluid was collected after one hour and analyzed using scintillation spectrometry). […] Where indicated, aliquots of the test products/formulations were spiked with the appropriate radioactive material (^3H-inositol, ^14C-niacinamide, ^14[…] or ^14C-retinyl propionate) with approximately 3 μCi per 300 mg product aliquot, mixed and assayed for total radioactivity in triplicate using Ultima Gold [Perkin-Elmer] liquid scintillation cocktail (LSC) and liquid scintillation counting. […] Active materials in receptor phase, filter paper wipes and solubilized skin samples were quantified using liquid scintillation. […]

For `CCCCCCCCCCCCCCCC(=O)N[C@@H](CCCCN)C(=O)N[C@H](C(=O)N[C@H](C(=O)N[C@@H](CCCCN)C(=O)N[C@@H](CO)C(=O)O)[C@@H](C)O)[C@@H](C)O` [PalKTTKS, palimitoyl-lysine-threonine-threonine-lysine-serine] (HELM PEPTIDE1{[CCCCCCCCCCCCCCCC(=O)[*:2]].K.T.T.K.S}$$$$V2.0; C-terminus assumed), the “significance of mean μg PalKTTKS/μg skin of Strip 6-10” value ([1]; Magnetic Micro array w Vibration, Mean, vs. mean of passive) was “s”, the “μg PalKTTKS/μg skin of Strip 6-10” value ([1]; Magnetic Micro array w Vibration, Mean of 10 panelists) was 0.02522 μg PalKTTKS/μg skin and the “μg PalKTTKS/μg skin of Strip 6-10” value ([1]; Magnetic Micro array w Vibration, Panelist1) was 0.01152 μg PalKTTKS/μg skin. For the same compound, the “μg PalKTTKS/μg skin of Strip 6-10” value ([1]; Magnetic Micro array w Vibration, Panelist2) was 0.02161 μg PalKTTKS/μg skin, the “μg PalKTTKS/μg skin of Strip 6-10” value ([1]; Magnetic Micro array w Vibration, Panelist3) was 0.01304 μg PalKTTKS/μg skin and the “μg PalKTTKS/μg skin of Strip 6-10” value ([1]; Magnetic Micro array w Vibration, Panelist4) was 0.0258 μg PalKTTKS/μg skin. For the same compound, the “μg PalKTTKS/μg skin of Strip 6-10” value ([1]; Magnetic Micro array w Vibration, Panelist5) was 0.0568 μg PalKTTKS/μg skin, the “μg PalKTTKS/μg skin of Strip 6-10” value ([1]; Magnetic Micro array w Vibration, Panelist6) was 0.04369 μg PalKTTKS/μg skin and the “μg PalKTTKS/μg skin of Strip 6-10” value ([1]; Magnetic Micro array w Vibration, Panelist7) was 0.02184 μg PalKTTKS/μg skin. For the same compound, the “μg PalKTTKS/μg skin of Strip 6-10” value ([1]; Magnetic Micro array w Vibration, Panelist8) was 0.02081 μg PalKTTKS/μg skin, the “μg PalKTTKS/μg skin of Strip 6-10” value ([1]; Magnetic Micro array w Vibration, Panelist9) was 0.01648 μg PalKTTKS/μg skin and the “μg PalKTTKS/μg skin of Strip 6-10” value ([1]; Magnetic Micro array w Vibration, Panelist10) was 0.02061 μg PalKTTKS/μg skin. For the same compound, the “μg PalKTTKS/μg skin of Strip 6-10” value ([1]; Magnetic Micro array w/o Vibration, Mean of 10 panelists) was 0.02166 μg PalKTTKS/μg skin, the “μg PalKTTKS/μg skin of Strip 6-10” value ([1]; Magnetic Micro array w/o Vibration, Panelist1) was 0.0107 μg PalKTTKS/μg skin and the “μg PalKTTKS/μg skin of Strip 6-10” value ([1]; Magnetic Micro array w/o Vibration, Panelist2) was 0.01869 μg PalKTTKS/μg skin. For the same compound, the “μg PalKTTKS/μg skin of Strip 6-10” value ([1]; Magnetic Micro array w/o Vibration, Panelist3) was 0.00663 μg PalKTTKS/μg skin, the “μg PalKTTKS/μg skin of Strip 6-10” value ([1]; Magnetic Micro array w/o Vibration, Panelist4) was 0.01973 μg PalKTTKS/μg skin and the “μg PalKTTKS/μg skin of Strip 6-10” value ([1]; Magnetic Micro array w/o Vibration, Panelist5) was 0.05444 μg PalKTTKS/μg skin. The “μg PalKTTKS/μg skin of Strip 6-10” value ([1]; Magnetic Micro array w/o Vibration, Panelist6) was 0.03195 μg PalKTTKS/μg skin, the “μg PalKTTKS/μg skin of Strip 6-10” value ([1]; Magnetic Micro array w/o Vibration, Panelist7) was 0.02902 μg PalKTTKS/μg skin and the “μg PalKTTKS/μg skin of Strip 6-10” value ([1]; Magnetic Micro array w/o Vibration, Panelist8) was 0.01924 μg PalKTTKS/μg skin. For the same compound, the “μg PalKTTKS/μg skin of Strip 6-10” value ([1]; Magnetic Micro array w/o Vibration, Panelist9) was 0.00638 μg PalKTTKS/μg skin, the “μg PalKTTKS/μg skin of Strip 6-10” value ([1]; Magnetic Micro array w/o Vibration, Panelist10) was 0.01984 μg PalKTTKS/μg skin and the “penetration of the active into skin” value ([1]; applicator combining magnetic array with vibration source vs. control applicator with just a magnetic array) was “penetration of the active is enhanced”. The “Enhancement for strip 6-10” value ([1]; Mean) was 1.337, the “Enhancement for strip 6-10” value ([1]; Panelist1) was 1.077 and the “Enhancement for strip 6-10” value ([1]; Panelist2) was 1.156. For the same compound, the “Enhancement for strip 6-10” value ([1]; Panelist3) was 1.966, the “Enhancement for strip 6-10” value ([1]; Panelist4) was 1.307 and the “Enhancement for strip 6-10” value ([1]; Panelist5) was 1.043. For the same compound, the “Enhancement for strip 6-10” value ([1]; Panelist6) was 1.367, the “Enhancement for strip 6-10” value ([1]; Panelist7) was 0.7528 and the “Enhancement for strip 6-10” value ([1]; Panelist8) was 1.081. For the same compound, the “Enhancement for strip 6-10” value ([1]; Panelist9) was 2.582, the “Enhancement for strip 6-10” value ([1]; Panelist10) was 1.039 and the diamagnetic susceptibility [2] was “approximately −519”.

With `OC1C(O)[C@H](O)[C@@H](O)C(O)[C@H]1O` (stereo in doubt) [inositol, cyclohexane-1,2,3,4,5,6-hexol] the “penetration into skin of inositol” value [3] was “significant increase in penetration into skin”.
